# pIC50: −log10 of the molar value.
# How the values were obtained:
# [1] = molecular target: Matrix metalloproteinase-9 (Rattus norvegicus, UniProt P50282); assay: enzyme-based fluorimetric assay; conditions: pH 7.5; 25 °C
# From the text: (§1) For this assay, the reagents used as follows. The substrate corresponds to Mca-Pro-Leu-Gly-Leu-Dpa-Ala-Arg 25 mm in assay buffer. This low-fluorescent peptide is cleaved by MMPs to provide Mca-Pro-Leu-Gly, which is intensely fluorescent at an excitation at 340 nm and emission at 405 nm. While the enzymes pro-MMP-2 250 pm and MMP-9 (recombinant catalytic sequence) 500 pm in assay buffer. The assay buffer consists of Tris HCl 0.1 m, pH 7.5, NaCl 0.1 m, CaCl2 10 mm, 0.05% v/v BRIJ35, APMA (p-aminophenylmercuric acetate) 1 mm. This was carried out in 96-well plate, a solution of […] at the appropriate concentration and […] was incubated together at 25 °C for 30 min, and […] of substrate solution was added and the plate was further incubated 3 h at 37 °C. The incubation solutions were quenched with acetic acid ([…] soln.) and their fluorescence was recorded with the help of a plate reader spectrometer. The inhibitory activities were calculated against a control and IC50 curves, derived from 6 different inhibitor concentrations, extrapolated by means of statistical analysis program graphpad prism (v. 4.0; San Diego, CA, USA). Each inhibitor concentration was used in triplicate and the experiments run twice.
# [2] = molecular target: 72 kDa type IV collagenase (Rat, UniProt P33436); assay: enzyme-based fluorimetric assay; conditions: pH 7.5; 25 °C
# From the text: as §1
# Sequence of Matrix metalloproteinase-9 (P50282 whole entry): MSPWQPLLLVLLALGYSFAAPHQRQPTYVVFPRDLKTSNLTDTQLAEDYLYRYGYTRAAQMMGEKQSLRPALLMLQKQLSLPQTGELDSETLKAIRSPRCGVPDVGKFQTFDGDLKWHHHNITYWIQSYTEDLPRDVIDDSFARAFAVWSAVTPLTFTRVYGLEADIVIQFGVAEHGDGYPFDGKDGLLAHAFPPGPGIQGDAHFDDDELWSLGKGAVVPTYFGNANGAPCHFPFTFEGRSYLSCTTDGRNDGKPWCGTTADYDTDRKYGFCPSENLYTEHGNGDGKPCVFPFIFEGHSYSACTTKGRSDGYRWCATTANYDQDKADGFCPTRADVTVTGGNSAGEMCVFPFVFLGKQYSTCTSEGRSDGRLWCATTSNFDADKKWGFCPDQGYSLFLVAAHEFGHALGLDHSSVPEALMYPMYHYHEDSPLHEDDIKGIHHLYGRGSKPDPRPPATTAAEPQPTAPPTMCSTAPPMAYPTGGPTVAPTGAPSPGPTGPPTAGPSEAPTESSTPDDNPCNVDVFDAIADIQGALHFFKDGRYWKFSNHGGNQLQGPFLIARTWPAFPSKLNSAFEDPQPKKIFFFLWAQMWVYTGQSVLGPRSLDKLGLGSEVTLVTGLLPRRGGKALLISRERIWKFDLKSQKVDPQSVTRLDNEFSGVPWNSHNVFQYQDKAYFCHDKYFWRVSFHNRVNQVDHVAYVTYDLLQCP
# Sequence of 72 kDa type IV collagenase (P33436 whole entry): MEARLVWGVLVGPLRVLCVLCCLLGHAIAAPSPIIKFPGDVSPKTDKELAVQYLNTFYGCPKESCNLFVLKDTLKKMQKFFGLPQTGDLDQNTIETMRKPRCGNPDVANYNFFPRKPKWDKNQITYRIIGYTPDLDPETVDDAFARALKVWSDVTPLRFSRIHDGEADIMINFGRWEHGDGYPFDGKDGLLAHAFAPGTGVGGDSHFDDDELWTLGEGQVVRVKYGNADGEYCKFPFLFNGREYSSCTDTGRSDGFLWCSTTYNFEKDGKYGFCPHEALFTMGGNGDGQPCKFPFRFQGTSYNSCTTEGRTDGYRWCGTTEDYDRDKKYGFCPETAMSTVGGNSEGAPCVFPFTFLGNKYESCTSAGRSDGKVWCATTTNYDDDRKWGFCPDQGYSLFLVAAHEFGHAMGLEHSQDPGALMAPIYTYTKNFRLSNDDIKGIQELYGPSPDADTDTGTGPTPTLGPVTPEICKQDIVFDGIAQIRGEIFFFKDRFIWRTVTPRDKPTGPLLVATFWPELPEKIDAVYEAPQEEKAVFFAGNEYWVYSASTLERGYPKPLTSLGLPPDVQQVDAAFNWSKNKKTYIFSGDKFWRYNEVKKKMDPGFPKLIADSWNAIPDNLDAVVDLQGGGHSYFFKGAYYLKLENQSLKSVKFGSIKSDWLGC
SMILES,pIC50 [1],pIC50 [2]
"COc1ccc(-c2cc(-c3ccc(NS(=O)(=O)c4ccc(C)cc4)cc3)nn2-c2nc(Nc3ccccc3)nc(Nc3ccccc3)n2)cc1 [N-(4-(1-(4,6-bis(phenylamino)-1,3,5-triazin-2-yl)-5-(4-methoxyphenyl)-1H-pyrazol-3-yl)phenyl)-4-methylbenzenesulphonamide (8d)]",6.98,6.91
"COc1ccc(-c2cc(-c3ccc(NS(=O)(=O)c4ccc(C)cc4)cc3)nn2-c2nc(N3CCNCC3)nc(N3CCNCC3)n2)cc1 [N-(4-(1-(4,6-di(piperazin-1-yl)-1,3,5-triazin-2-yl)-5-(4-methoxyphenyl)-1H-pyrazol-3-yl)phenyl)-4-methylbenzenesulphonamide (8i)]",7.33,7.26
"COc1ccc(-c2cc(-c3ccc(NS(=O)(=O)c4ccc(C)cc4)cc3)nn2-c2nc(Nc3ccccc3C)nc(Nc3ccccc3C)n2)cc1 [N-(4-(1-(4,6-bis(o-tolylamino)-1,3,5-triazin-2-yl)-5-(4-methoxyphenyl)-1H-pyrazol-3-yl)phenyl)-4-methylbenzenesulphonamide (8g)]",7.23,7.17
"COc1ccc(-c2cc(-c3ccc(NS(=O)(=O)c4ccc(C)cc4)cc3)nn2-c2nc(Nc3ccc([N+](=O)[O-])cc3)nc(Nc3ccc([N+](=O)[O-])cc3)n2)cc1 [N-(4-(1-(4,6-bis((4-nitrophenyl)amino)-1,3,5-triazin-2-yl)-5-(4-methoxyphenyl)-1H-pyrazol-3-yl)phenyl)-4-methylbenzenesulphonamide (8h)]",7.16,7.12
"CNc1nc(NC)nc(-n2nc(-c3ccc(NS(=O)(=O)c4ccc(C)cc4)cc3)cc2-c2ccc(OC)cc2)n1 [N-(4-(1-(4,6-bis(methylamino)-1,3,5-triazin-2-yl)-5-(4-methoxyphenyl)-1H-pyrazol-3-yl)phenyl)-4-methylbenzenesulphonamide (8a)]",6.20,6.18
"COc1ccc(-c2cc(-c3ccc(NS(=O)(=O)c4ccc(C)cc4)cc3)nn2-c2nc(Nc3ccc(O)cc3)nc(Nc3ccc(O)cc3)n2)cc1 [N-(4-(1-(4,6-bis((4-hydroxyphenyl)amino)-1,3,5-triazin-2-yl)-5-(4-methoxyphenyl)-1H-pyrazol-3-yl)phenyl)-4-methylbenzenesulphonamide (8e)]",8.63,8.09
"COc1ccc(-c2cc(-c3ccc(NS(=O)(=O)c4ccc(C)cc4)cc3)nn2-c2nc(N3CCOCC3)nc(N3CCOCC3)n2)cc1 [N-(4-(1-(4,6-dimorpholino-1,3,5-triazin-2-yl)-5-(4-methoxyphenyl)-1H-pyrazol-3-yl)phenyl)-4-methylbenzenesulphonamide (8j)]",7.51,7.37
"CCNc1nc(NCC)nc(-n2nc(-c3ccc(NS(=O)(=O)c4ccc(C)cc4)cc3)cc2-c2ccc(OC)cc2)n1 [N-(4-(1-(4,6-bis(ethylamino)-1,3,5-triazin-2-yl)-5-(4-methoxyphenyl)-1H-pyrazol-3-yl)phenyl)-4-methylbenzenesulphonamide (8b)]",6.52,6.48
"COc1ccc(-c2cc(-c3ccc(NS(=O)(=O)c4ccc(C)cc4)cc3)nn2-c2nc(NCCCN)nc(NCCCN)n2)cc1 [N-(4-(1-(4,6-bis((3-aminopropyl)amino)-1,3,5-triazin-2-yl)-5-(4-methoxyphenyl)-1H-pyrazol-3-yl)phenyl)-4-methylbenzenesulphonamide (8c)]",6.81,6.72
"COc1ccc(Nc2nc(Nc3ccc(OC)cc3)nc(-n3nc(-c4ccc(NS(=O)(=O)c5ccc(C)cc5)cc4)cc3-c3ccc(OC)cc3)n2)cc1 [N-(4-(1-(4,6-bis((4-methoxyphenyl)amino)-1,3,5-triazin-2-yl)-5-(4-methoxyphenyl)-1H-pyrazol-3-yl)phenyl)-4-methylbenzenesulphonamide (8f)]",7.99,7.73
